Laboratory results published in PubChem BioAssay AID248 (DTP/NCI, 2004).
Values joined by “and” are separate entries in the source; they are usually repeats but may differ in a detail not shown here. Identical values can stand only once. Toxic doses and inconclusive results are not listed.

System: L1210 leukemia ip in BDF1 mice, survival T/C
Experiment: NCI In Vivo Anticancer Drug Screen. Data for tumor model L1210 Leukemia (intraperitoneal) in B6D2F1 (BDF1) mice
Conditions: endpoint: mean survival time, higher = longer survival
Outline: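 Ratio derived from survival: compound-dosed mice over vehicle-dosed mice, all bearing a transplantable tumor.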

[1] = dose: 50.0 mg/kg/injection, schedule: Q01DX009 (ip), vehicle: saline with Tween-80
[2] = dose: 100.0 mg/kg/injection, schedule: Q01DX009 (ip), vehicle: saline with Tween-80
[3] = dose: 100.0 mg/kg/injection, schedule: Q01DX001 (ip), vehicle: carboxymethylcellulose (CMC)
[4] = dose: 200.0 mg/kg/injection, schedule: Q01DX001 (ip), vehicle: carboxymethylcellulose (CMC)
[5] = dose: 400.0 mg/kg/injection, schedule: Q01DX001 (ip), vehicle: carboxymethylcellulose (CMC)
[6] = dose: 25.0 mg/kg/injection, schedule: Q01DX009 (ip), vehicle: saline with Tween-80
[7] = dose: 100.0 mg/kg/injection, schedule: Q01DX001 (ip), vehicle: Klucel (hydroxypropylcellulose) (HPC)
[8] = dose: 100.0 mg/kg/injection, schedule: Q04DX003 (ip), vehicle: Klucel (hydroxypropylcellulose) (HPC)
[9] = dose: 200.0 mg/kg/injection, schedule: Q01DX001 (ip), vehicle: Klucel (hydroxypropylcellulose) (HPC)
[10] = dose: 200.0 mg/kg/injection, schedule: Q04DX003 (ip), vehicle: Klucel (hydroxypropylcellulose) (HPC)
[11] = dose: 100.0 mg/kg/injection, schedule: Q04DX003 (ip), vehicle: saline with Tween-80
[12] = dose: 200.0 mg/kg/injection, schedule: Q01DX009 (ip), vehicle: saline with Tween-80
[13] = dose: 200.0 mg/kg/injection, schedule: Q04DX003 (ip), vehicle: saline with Tween-80
[14] = dose: 400.0 mg/kg/injection, schedule: Q01DX009 (ip), vehicle: saline with Tween-80
[15] = dose: 400.0 mg/kg/injection, schedule: Q04DX003 (ip), vehicle: saline with Tween-80

For `CCN(CC)CCN1C(=O)c2ccccc2S1(=O)=O`, the T/C (dose: 44.0 mg/kg/injection, schedule: Q01DX Z (ip), vehicle: saline) was 100 % of control, the T/C (dose: 66.0 mg/kg/injection, schedule: Q01DX Z (ip), vehicle: saline) was 98 % of control and the T/C (dose: 100.0 mg/kg/injection, schedule: Q01DX Z (ip), vehicle: saline) was 98 % of control.
With `Cc1ccc(S(=O)(=O)Oc2ccccc2NC(=O)c2ccccc2)cc1` the T/C [1] was 96 % of control and the T/C [2] was 96 % of control.
In the case of `N#CC1(c2ccccc2)CCCCC1`, the T/C [3] is reported as 96 % of control, the T/C [4] is reported as 89 % of control and the T/C [5] is reported as 94 % of control.
For `O=C1NCC(Nc2ccc(Br)cc2Cl)C(=O)N1` (centres undefined), the T/C (dose: 100.0 mg/kg/injection, schedule: Q01DX Z (ip), vehicle: methylcellulose (MC)) was 96 % of control and the T/C (dose: 200.0 mg/kg/injection, schedule: Q01DX Z (ip), vehicle: methylcellulose (MC)) was 90 % of control.
With `c1ccc(CC(Cc2ccccc2)NC2=NCCO2)cc1` the T/C (dose: 6.25 mg/kg/injection, schedule: Q01DX009 (ip), vehicle: saline with Tween-80) was 106 % of control, the T/C (dose: 6.25 mg/kg/injection, schedule: Q04DX003 (ip), vehicle: saline with Tween-80) was 107 % of control and the T/C (dose: 12.5 mg/kg/injection, schedule: Q01DX009 (ip), vehicle: saline with Tween-80) was 94 % of control. For the same compound, the T/C (dose: 12.5 mg/kg/injection, schedule: Q04DX003 (ip), vehicle: saline with Tween-80) was 106 % of control, the T/C [6] was 89 % of control and the T/C (dose: 25.0 mg/kg/injection, schedule: Q04DX003 (ip), vehicle: saline with Tween-80) was 102 % of control.
With `OCC(O)COc1cccc2cccnc12` (centres undefined) the T/C (dose: 100.0 mg/kg/injection, schedule: Q04DX003 (ip), vehicle: saline) was 110 % of control, the T/C (dose: 200.0 mg/kg/injection, schedule: Q04DX003 (ip), vehicle: saline) was 101 % of control and the T/C (dose: 400.0 mg/kg/injection, schedule: Q04DX003 (ip), vehicle: saline) was 103 % of control.
For `C/C(CC(=O)Nc1ccc(Cc2ccc(Cl)cc2)cc1)=N/Nc1ccc([N+](=O)[O-])cc1[N+](=O)[O-]`, the T/C (dose: 100.0 mg/kg/injection, schedule: Q01DX001 (ip), vehicle: saline) was 94 % of control and the T/C (dose: 200.0 mg/kg/injection, schedule: Q01DX001 (ip), vehicle: saline) was 101 % of control.
For `COC(=O)C(Cc1ccc(C)cc1)N1CCCCC1` (centres undefined), the T/C [3] was 101 % of control, the T/C [4] was 101 % of control and the T/C [5] was 98 % of control.
`O=[N+]([O-])c1ccc2c(c1)n([O-])c1ccccc1[n+]2=O` was tested, and the T/C (dose: 50.0 mg/kg/injection, schedule: Q04DX003 (ip), vehicle: Klucel (hydroxypropylcellulose) (HPC)) was 89 % of control, the T/C [7] was 97 % of control and the T/C [8] was 90 % of control and 92 % of control. For the same compound, the T/C [9] was 95 % of control and the T/C [10] was 97 % of control and 101 % of control.
For `CCCC[S][Hg][I]`, the T/C (dose: 3.12 mg/kg/injection, schedule: Q01DX009 (ip), vehicle: Klucel (hydroxypropylcellulose) (HPC)) was 98 % of control, the T/C (dose: 6.25 mg/kg/injection, schedule: Q01DX009 (ip), vehicle: Klucel (hydroxypropylcellulose) (HPC)) was 98 % of control and the T/C (dose: 12.5 mg/kg/injection, schedule: Q01DX009 (ip), vehicle: Klucel (hydroxypropylcellulose) (HPC)) was 110 % of control.
`CCCCNC(C)(C)C(SSC(c1cccs1)C(C)(C)NCCCC)c1cccs1` (centres undefined) was tested, and the T/C (dose: 25.0 mg/kg/injection, schedule: Q01DX009 (ip), vehicle: saline sonified) was 100 % of control, the T/C (dose: 50.0 mg/kg/injection, schedule: Q01DX009 (ip), vehicle: saline sonified) was 100 % of control and the T/C (dose: 100.0 mg/kg/injection, schedule: Q01DX009 (ip), vehicle: saline sonified) was 96 % of control. For the same compound, the T/C (dose: 100.0 mg/kg/injection, schedule: Q04DX003 (ip), vehicle: saline sonified) was 90 % of control.
`CC(=O)Nc1ccc2c(c1)C[N+](C)(C1CCCCC1)CO2` (centres undefined) was tested, and the T/C [6] was 101 % of control, the T/C (dose: 25.0 mg/kg/injection, schedule: Q01DX015 (ip), vehicle: carboxymethylcellulose (CMC)) was 103 % of control and the T/C [1] was 95 % of control. For the same compound, the T/C (dose: 50.0 mg/kg/injection, schedule: Q01DX015 (ip), vehicle: carboxymethylcellulose (CMC)) was 98 % of control, the T/C (dose: 50.0 mg/kg/injection, schedule: Q04DX003 (ip), vehicle: saline with Tween-80) was 97 % of control and the T/C [3] was 92 % of control. For the same compound, the T/C [2] was 95 % of control, the T/C [11] was 100 % of control and the T/C [4] was 94 % of control.
`Nc1ccc(S(=O)O)cc1` was tested, and the T/C [2] was 94 % of control, the T/C [11] was 105 % of control and the T/C [12] was 91 % of control. The T/C [13] was 95 % of control, the T/C [14] was 94 % of control and the T/C [15] was 91 % of control.
`O=C1C(NCCO)=C(N2CC2)C(=O)C(NCCO)=C1N1CC1` was tested, and the T/C (dose: 0.04 mg/kg/injection, schedule: Q01DX009 (ip), vehicle: saline) was 115 % of control, the T/C (dose: 0.09 mg/kg/injection, schedule: Q01DX009 (ip), vehicle: saline) was 111 % of control and the T/C (dose: 0.09 mg/kg/injection, schedule: Q04DX003 (ip), vehicle: saline) was 121 % of control. The T/C (dose: 0.18 mg/kg/injection, schedule: Q01DX009 (ip), vehicle: saline) was 159 % of control and 164 % of control and 195 % of control, the T/C (dose: 0.18 mg/kg/injection, schedule: Q04DX003 (ip), vehicle: saline) was 120 % of control and the T/C (dose: 0.19 mg/kg/injection, schedule: Q01DX009 (ip), vehicle: saline) was 153 % of control. The T/C (dose: 0.37 mg/kg/injection, schedule: Q01DX001 (ip), vehicle: saline) was 103 % of control, the T/C (dose: 0.37 mg/kg/injection, schedule: Q01DX009 (ip), vehicle: saline) was 157 % of control and 164 % of control and 212 % of control and the T/C (dose: 0.37 mg/kg/injection, schedule: Q04DX003 (ip), vehicle: saline) was 155 % of control and 157 % of control. The T/C (dose: 0.38 mg/kg/injection, schedule: Q01DX009 (ip), vehicle: saline) was 184 % of control, the T/C (dose: 0.75 mg/kg/injection, schedule: Q04DX003 (ip), vehicle: saline) was 170 % of control and 231 % of control and the T/C (dose: 1.5 mg/kg/injection, schedule: Q01DX001 (ip), vehicle: saline) was 275 % of control. The T/C (dose: 1.5 mg/kg/injection, schedule: Q04DX003 (ip), vehicle: saline) was 160 % of control and 164 % of control and 186 % of control, the T/C (dose: 1.56 mg/kg/injection, schedule: Q04DX003 (ip), vehicle: saline) was 103 % of control and the T/C (dose: 3.0 mg/kg/injection, schedule: Q04DX003 (ip), vehicle: saline) was 104 % of control and 115 % of control.
In the case of `CCN(CC)CCNc1nc(N)nc2c1nnn2CC`, the T/C (dose: 100.0 mg/kg/injection, schedule: Q04DX003 (ip), vehicle: gum acacia) is reported as 93 % of control and the T/C (dose: 200.0 mg/kg/injection, schedule: Q04DX003 (ip), vehicle: gum acacia) is reported as 91 % of control.
In the case of `Cn1nnnc1N/N=C/c1ccccc1`, the T/C [2] is reported as 98 % of control, the T/C [12] is reported as 95 % of control and the T/C [14] is reported as 95 % of control.
In the case of `O=C(Oc1c(Cl)cc(Cl)cc1Cl)c1ccccc1`, the T/C (dose: 100.0 mg/kg/injection, schedule: Q01DX009 (ip), vehicle: Klucel (hydroxypropylcellulose) (HPC)) is reported as 93 % of control, the T/C [2] is reported as 90 % of control and the T/C [8] is reported as 93 % of control. For the same compound, the T/C [11] was 98 % of control, the T/C (dose: 200.0 mg/kg/injection, schedule: Q01DX009 (ip), vehicle: Klucel (hydroxypropylcellulose) (HPC)) was 96 % of control and the T/C [12] was 91 % of control. The T/C [10] was 96 % of control, the T/C [13] was 98 % of control and the T/C (dose: 400.0 mg/kg/injection, schedule: Q01DX009 (ip), vehicle: Klucel (hydroxypropylcellulose) (HPC)) was 98 % of control. For the same compound, the T/C [14] was 106 % of control, the T/C (dose: 400.0 mg/kg/injection, schedule: Q04DX003 (ip), vehicle: Klucel (hydroxypropylcellulose) (HPC)) was 98 % of control and the T/C [15] was 96 % of control.
In the case of `CCOC(=O)C(O)(C(=O)OCC)c1ccccc1`, the T/C (dose: 100.0 mg/kg/injection, schedule: Q01DX001 (ip), vehicle: other) is reported as 97 % of control, the T/C (dose: 200.0 mg/kg/injection, schedule: Q01DX001 (ip), vehicle: other) is reported as 102 % of control and the T/C (dose: 400.0 mg/kg/injection, schedule: Q01DX001 (ip), vehicle: other) is reported as 103 % of control.
With `O=c1c(N=Nc2ccc(Br)cc2)c(O)n(-c2ccc(I)cc2)c(=S)n1-c1ccccc1` the T/C (dose: 50.0 mg/kg/injection, schedule: Q01DX001 (ip), vehicle: Klucel (hydroxypropylcellulose) (HPC)) was 97 % of control, the T/C [7] was 108 % of control and the T/C [9] was 121 % of control.
